# Assay results reported in publication PMC4839570, “Novel Anthra[1,2-c][1,2,5]Thiadiazole-6,11-Diones as Promising Anticancer Lead Compounds: Biological Evaluation, Characterization & Molecular Targets Determination” (PLoS ONE, 2016).
# Read-outs that look alike come from different tables or passages of the source.
# How the values were obtained:
# [1] = tested on: CCRF-CEM; assay: NCI-60 cytotoxicity screen; assay type: cell-based
# [2] = tested on: RPMI-8226; assay: NCI-60 cytotoxicity screen; assay type: cell-based
# [3] = tested on: NCI-H226; assay: NCI-60 cytotoxicity screen; assay type: cell-based
# [4] = tested on: NCI-H23; assay: NCI-60 cytotoxicity screen; assay type: cell-based
# [5] = tested on: NCI-H322M; assay: NCI-60 cytotoxicity screen; assay type: cell-based
# [6] = tested on: COLO 205; assay: NCI-60 cytotoxicity screen; assay type: cell-based
# [7] = tested on: HCC-2998; assay: NCI-60 cytotoxicity screen; assay type: cell-based
# [8] = tested on: SF-295; assay: NCI-60 cytotoxicity screen; assay type: cell-based
# [9] = tested on: SNB-75; assay: NCI-60 cytotoxicity screen; assay type: cell-based
# [10] = tested on: LOX IMVI; assay: NCI-60 cytotoxicity screen; assay type: cell-based
# [11] = tested on: MDA-MB-435; assay: NCI-60 cytotoxicity screen; assay type: cell-based
# [12] = tested on: SK-MEL-28; assay: NCI-60 cytotoxicity screen; assay type: cell-based
# [13] = tested on: SK-MEL-5; assay: NCI-60 cytotoxicity screen; assay type: cell-based
# [14] = tested on: UACC-257; assay: NCI-60 cytotoxicity screen; assay type: cell-based
# [15] = tested on: UACC-62; assay: NCI-60 cytotoxicity screen; assay type: cell-based
# [16] = tested on: OVCAR-4; assay: NCI-60 cytotoxicity screen; assay type: cell-based
# [17] = tested on: CAKI-1; assay: NCI-60 cytotoxicity screen; assay type: cell-based
# [18] = tested on: HS 578T; assay: NCI-60 cytotoxicity screen; assay type: cell-based
# [19] = tested on: T-47D; assay: NCI-60 cytotoxicity screen; assay type: cell-based
# [20] = tested on: HBC-4; assay: JFCR-39 cytotoxicity screen; assay type: cell-based
# [21] = tested on: HBC-5; assay: JFCR-39 cytotoxicity screen; assay type: cell-based
# [22] = tested on: MDA-MB-231; assay: JFCR-39 cytotoxicity screen; assay type: cell-based
# [23] = tested on: HCC2998; assay: JFCR-39 cytotoxicity screen; assay type: cell-based
# [24] = tested on: HCT-116; assay: JFCR-39 cytotoxicity screen; assay type: cell-based
# [25] = tested on: A549; assay: JFCR-39 cytotoxicity screen; assay type: cell-based
# [26] = tested on: DMS114; assay: JFCR-39 cytotoxicity screen; assay type: cell-based
# [27] = tested on: OVCAR-8; assay: JFCR-39 cytotoxicity screen; assay type: cell-based
# [28] = tested on: ACHN; assay: JFCR-39 cytotoxicity screen; assay type: cell-based
# [29] = tested on: MKN28; assay: JFCR-39 cytotoxicity screen; assay type: cell-based
# [30] = tested on: MKN45; assay: JFCR-39 cytotoxicity screen; assay type: cell-based
# [31] = tested on: OVCAR-3; assay: cells; details: Homo sapiens, OVCAR-3, read-out: mean log10 of the GI50 values (converted)
# [32] = Homo sapiens, Fig 7, read-out: mean log10 of the GI50 values (converted)
# [33] = Homo sapiens, five-dose, read-out: GI50
# [34] = Homo sapiens, five-dose, read-out: LC50 (the source's name)
# [35] = Homo sapiens, read-out: LC50 (the source's name)
smiles,measurement,setting,value
"O=C1c2ccccc2C(=O)c2c1ccc1nsnc21 [NSC745885, anthra[1,2-c][1,2,5]thiadiazole-6,11-dione]",GI50,[1]; [32],1.55 µM
same,GI50,[1]; [33],1.08 µM
same,CC50,[1]; [34],> 100 µM
same,TGI,[1]; five-dose,4.10 µM
same,GI50,[2]; [32],1.35 µM
same,GI50,[2]; [33],1.18 µM
same,CC50,[2]; [34],> 100 µM
same,TGI,[2]; five-dose,3.46 µM
same,GI50,[3]; [32],8.32 µM
same,LC50 (concentration killing 50% of cells),"[3]; Homo sapiens, five-dose",63.7 µM
same,GI50,[3]; [33],4.48 µM
same,TGI,[3]; five-dose,21.6 µM
same,GI50,[4]; [32],1.07 µM
same,GI50,[4]; [33],1.44 µM
same,CC50,[4]; [34],> 100 µM
same,TGI,[4]; five-dose,6.04 µM
same,GI50,[5]; [32],36.3 µM
same,GI50,[5]; [33],17.4 µM
same,CC50,[5]; [34],> 100 µM
same,TGI,[5]; five-dose,47.8 µM
same,GI50,"[6]; Homo sapiens, COLO205, Fig 7, read-out: mean log10 of the GI50 values (converted)",5.13 µM
same,GI50,[6]; [33],13.4 µM
same,CC50,[6]; [34],62.4 µM
same,TGI,[6]; five-dose,28.9 µM
same,GI50,[7]; [32],5.89 µM
same,LC50 (concentration causing 50% net cell kill),"[7]; Homo sapiens, five-dose",66.6 µM
same,GI50,[7]; [33],16.4 µM
same,TGI,[7]; five-dose,33.1 µM
same,GI50,[8]; [32],2.4 µM
same,GI50,[8]; [33],1.9 µM
same,CC50,[8]; [34],8.56 µM
same,TGI,[8]; five-dose,4.04 µM
same,GI50,[9]; [32],1.7 µM
same,GI50,[9]; [33],2.03 µM
same,CC50,[9]; [34],18.6 µM
same,TGI,[9]; five-dose,5.20 µM
same,GI50,"[10]; Homo sapiens, LOXIMVI, Fig 7, read-out: mean log10 of the GI50 values (converted)",0.912 µM
same,GI50,[10]; [33],0.82 µM
same,CC50,[10]; [34],4.86 µM
same,TGI,[10]; five-dose,2.13 µM
same,GI50,[11]; [32],1.91 µM
same,GI50,[11]; [33],1.91 µM
same,CC50,[11]; [34],5.76 µM
same,TGI,[11]; five-dose,3.31 µM
same,GI50,[12]; [32],4.27 µM
same,GI50,[12]; [33],1.85 µM
same,CC50,[12]; [34],6.18 µM
same,TGI,[12]; five-dose,3.38 µM
same,GI50,[13]; [32],1.35 µM
same,GI50,[13]; [33],1.58 µM
same,CC50,[13]; [34],5.41 µM
same,TGI,[13]; five-dose,2.92 µM
same,GI50,[14]; [32],1.62 µM
same,GI50,[14]; [33],1.74 µM
same,CC50,[14]; [34],7.09 µM
same,TGI,[14]; five-dose,3.51 µM
same,GI50,[15]; [32],1.82 µM
same,GI50,[15]; [33],1.45 µM
same,CC50,[15]; [34],5.79 µM
same,TGI,[15]; five-dose,2.90 µM
same,GI50,[16]; [32],0.575 µM
same,GI50,[16]; [33],0.65 µM
same,CC50,[16]; [34],5.57 µM
same,inhibition at 10 µM,"[16]; Homo sapiens, single dose 10 μM, read-out: growth inhibition",94.4%
same,TGI,[16]; five-dose,2.17 µM
same,GI50,[17]; [32],1.86 µM
same,GI50,[17]; [33],1.61 µM
same,CC50,[17]; [34],5.44 µM
same,TGI,[17]; five-dose,2.96 µM
same,TGI,"[18]; HS 578T, five-dose",5.02 µM
same,GI50,"[18]; Homo sapiens, Hs-578T, HS578T, Fig 7, read-out: mean log10 of the GI50 values (converted)",2.63 µM
same,GI50,"[18]; Homo sapiens, HS 578T, five-dose, read-out: GI50",1.41 µM
same,CC50,"[18]; Homo sapiens, HS 578T, five-dose, read-out: LC50 (the source's name)",56 µM
same,GI50,"[19]; Homo sapiens, T47D, Fig 7, read-out: mean log10 of the GI50 values (converted)",0.724 µM
same,GI50,"[19]; Homo sapiens, T47D, five-dose, read-out: GI50",1.39 µM
same,CC50,"[19]; Homo sapiens, T47D, five-dose, read-out: LC50 (the source's name)",8.27 µM
same,TGI,[19]; five-dose,3.39 µM
same,TGI,[20],3.0 µM
same,GI50,"[20]; Homo sapiens, HBC4",1.7 µM
same,CC50,"[20]; Homo sapiens, HBC4, read-out: LC50 (the source's name)",5.5 µM
same,TGI,[21],3.5 µM
same,GI50,"[21]; Homo sapiens, HBC5",1.9 µM
same,CC50,"[21]; Homo sapiens, HBC5, read-out: LC50 (the source's name)",6.2 µM
same,TGI,[22],5.5 µM
same,GI50,[22]; Homo sapiens,1.4 µM
same,CC50,[22]; [35],63 µM
same,TGI,[23],3.9 µM
same,GI50,"[23]; Homo sapiens, HCC 2998",2.1 µM
same,CC50,"[23]; Homo sapiens, HCC 2998, read-out: LC50 (the source's name)",7.5 µM
same,TGI,[24],3.0 µM
same,GI50,[24]; Homo sapiens,1.6 µM
same,CC50,[24]; [35],5.8 µM
same,TGI,[25],41.0 µM
same,GI50,[25]; Homo sapiens,19 µM
same,CC50,[25]; [35],89 µM
same,TGI,[26],1.8 µM
same,GI50,"[26]; Homo sapiens, DMS-114",0.5 µM
same,CC50,"[26]; Homo sapiens, DMS-114, read-out: LC50 (the source's name)",5 µM
same,TGI,[27],4.0 µM
same,GI50,[27]; Homo sapiens,1.4 µM
same,CC50,[27]; [35],18 µM
same,TGI,[28],3.8 µM
same,GI50,[28]; Homo sapiens,1.9 µM
same,CC50,[28]; [35],7.6 µM
same,TGI,[29],4.4 µM
same,GI50,"[29]; Homo sapiens, MKN-28",1.8 µM
same,CC50,"[29]; Homo sapiens, MKN-28, read-out: LC50 (the source's name)",13 µM
same,TGI,[30],9.8 µM
same,GI50,"[30]; Homo sapiens, MKN-45",3.1 µM
same,CC50,"[30]; Homo sapiens, MKN-45, read-out: LC50 (the source's name)",39 µM
same,GI50,[31],1.35 µM
